Results reported in patent US6495376B1, “Methods and compositions for regulating protein-protein interactions” (Beth Israel Deaconess Medical Center, priority 1999, dated 2002).
Read-outs that look alike come from different tables or passages of the source. Where no end group is shown, it is not given here. [ ]: non-standard residue; d: D form. pT = C[C@@H](OP(=O)(O)O)[C@H](N)C(=O)O; pS = N[C@@H](COP(=O)(O)O)C(=O)O

What was measured:
[1] = tested on: peptide substrate; assay: PPIase activity assay with peptide substrate; type: biochemical; conditions: relative to wild-type protein defined as 100%
[2] = biological target: WFYpSPFLE (Pintide); assay: Fluorescence anisotropy (polarization) binding to fluorescein-labeled phosphorylated Pintide analogue
Text: To determine the affinity of Pin1, and its WW or PPIase domain for phosphopeptides, peptides were labeled with fluorescein and their interactions with Pin1 measured using quantitative fluorescence anisotrophy. To prevent nonspecific labeling, a Pintide analogue (WFYpSPFLE) SEQ ID NO: 9 was used, which binds Pin1 with a high affinity based on the peptide library screen as described by (Lu, K. P. et al., U.S. Ser. No. 60/058,164 (1997), the teachings of which are incorporated herein in their entirety.
(§1) Pintide and its nonphosphorylated counterpart were synthesized and incubated with GST-Pin1 or the GST-WW-domain of Pin1 in a binding buffer, using established procedures (Shen, M. et al., Genes & Dev 12:706 (1998)). After a 1 hr incubation, mitotic HeLa cell extracts were added and subjected to GST pull down experiments, followed by immunoblotting analysis using the MPM-2 antibody. To obtain semi-quantitative data, films of immunoblots were scanned at the region of 55 kDa, the major Pin1-binding protein, and data analyzed using ImageQuan (ScanJet II CX). The peptide binding constants were measured using a fluorescence polarization assay (Jiskoot, W. et al., Anal Biochem 196:421 (1991)). Peptides were fluorescein labeled at the N-terminus using the Fluorescein Amine Labeling Kit (Pan Vera Corp.) and purified by TLC according to the manufacturer's […]. To prevent nonspecific labeling, a Pintide analogue (WFYpSPFLE) SEQ ID NO: 8 and the nonphosphorylated control were used. Various concentrations of Pin1 and its mutant proteins were incubated with 0.1 μM of the labeled peptides in a binding buffer containing 50 mM HEPES, pH 7.4, 100 mM NaCl, 2% glycerol. Fluorescence polarization values were obtained using a Pan Vera Beacon 2000 system, as described by the manufacturer.

[3] = tested on: MPM-2 antigens (mitotic phosphoproteins) of mitotic HeLa cell extracts; assay: GST pulldown from mitotic HeLa cell extracts, MPM-2 immunoblotting (phosphoprotein-binding activity); conditions: for Phosphoprotein binding activity: GST-fusion proteins with mitotic extracts, MPM2 antibody; for binding to mitotic phosphoproteins / MPM-2 antigens (in words): mitotic HeLa cell extracts
Protocol: GST-fusion proteins containing the WW-domain, PPIase-domain or the entire Pin 1 protein were prepared and incubated with interphase (G1/S arrested; Control) or dividing (M phase) HeLa cell extracts using well-known procedures (Lu, K. P., et al., Nature 380:544 (1996); (Shen, M., et al., Genes & Devl. 12:706 (1998)). Briefly, HeLa cells were arrested at the G1/S boundary or mitosis by incubation with thymidine and aphidicolin or nocodazole for 16 h, respectively. The cells were lysed and supernatants incubated with 10 μl of agarose beads containing GST-Pin1; GST-WW-domain of Pin1; GST-PPIase domain of Pin1; or control GST for 2 h at 4° C. The phosphorylated precipitated proteins were washed 5 times in buffer containing 1% Triton X-100 before subjecting to immunoblotting analysis using MPM-2 antibody, as described previously (Yaffe, M. B. et al., Science 278:1957 (1997); Schukowski, et al., Biochemistry 37:5566 (1998); Shen, M. et al., Genes & Dev 12:706 (1998)). MPM-2 recognizes a subset of mitotic phosphoproteins including Pin1-binding proteins such as cdc25.
as §1
To examine the effect of Pin1 phosphorylation on Pin1 binding to ligands, Pin1 and Pin1 mutant proteins were incubated with the catalytic subunit of PKA and PKC (a mixture of α, β and γ, UBI) in a kinase reaction buffer containing 500 μM cold ATP at 30° C. for 15 min (Lu, K. P. et al., Anal. Biochem. 196:421 (1991)). The reactions were stopped by adding SDS sample buffer and reaction products separated on SDS-gels, followed by autoradiography. Pin1 proteins were isolated and used to bind MPM-2 antigens from mitotic extracts from HeLa cells, as previously described (Shen, M., et al., Genes & Dev 12:706 (1998)). Experiments were also performed with PKA and PKC, casein kinase, cyclin B/Cdc2 and SRPK1 kinases.

[4] = biological target: Pin1 (Homo sapiens, UniProt Q13526); assay: ELISA peptide binding to Pin1; conditions: for Binding (OD@405 nm), tau peptides: Pin1; for Binding (OD@405 nm), Amyloid Precursor Protein Peptide: protein not printed in these lines, text: Pin1 WW-domain
[5] = tested on: Pin1 and its WW-domain; assay: Peptide competition of Pin1 / WW-domain binding to MPM-2 antigens of mitotic extracts; parameters: species or system human; conditions: for competition for phosphoprotein binding (in words): 0, 25, 50, 125, 250, 500 μM peptide
Protocol: To examine the ability of a phosphopeptide to compete with phosphoproteins for binding to the WW-domain, the Pin1 binding phosphopeptide Pintide (WFYpSPRLKK, SEQ ID NO: 13) (Lu, K. P. et al., U.S. Ser. No. 60/058,164 (1997)) was used in competition assays. A nonphosphorylated counterpart of Pintide ([…], SEQ ID NO: 14) (C-Pintide) was used as a control.
as §1

[6] = tested on: phosphorylated tau; assay: GST-Pin1 pulldown of tau; type: binding; conditions: AD brain extracts, PHFs or age-matched normal brain extracts
Text: Pin1 binds and regulates the function of a defined subset of mitotic phosphoproteins by interacting with conserved phosphorylated Ser/Thr-Pro motifs that are also recognized by MPM-2, a mitosis-specific, phosphorylation-dependent monoclonal antibody (mAb) (Yaffe, M. B. et al., Science 278:1957-1960 (1997); Shen, M. et al., Genes Dev. 12:706-720 (1 998)). Tau is an MPM-2 antigen phosphorylated on multiple Ser/Thr-Pro motifs during mitosis (Illenberger, S. et al., Mol Biol Cell 9:1495-1512 (1998)). Experiments were undertaken to determine whether Pin1 binds tau. Tau isoform was either synthesized by in vitro transcription and translation in the presence of ^35S-Met or produced in bacteria as an N-terminal His-tagged protein, followed by purification using NTA-Ni columns (Yaffe, M. B. et al., Science 278:1957-1960 (1997); Shen, M. et al., Genes Dev. 12:706-720 (1998)). To generate interphase- and mitosis-specific phosphorylated form of tau, tau was incubated with Xenopus interphase and mitotic extracts, respectively (Shen, M. et al., Genes Dev. 12:706-720 (1998)). To prepare Cdc2 phosphorylated tau, purified recombinant tau was incubated with purified cyclin B/Cdc2 (UBI) for 6 to 12 hr at room temperature in a buffer containing 500 μM cold ATP, plus trace [^32P]-ATP in some experiments, (Vincent, I. et al., J Neurosci 17:3588-3598 (1997)).
Pin1 interactions with tau in AD brains were examined using a GST-Pin1 pulldown assay (Shen, M. et al., Genes Dev. 12:706-720 (1998)). Glutathione beads containing GST or GST-Pin1 were incubated with normal or AD brain extracts, or PHFs purified (Vincent, I. J. and Davies, P. Proc Natl Acad Sci USA 89:2878-2882 (1992)), and proteins associated with the beads were subjected to immunoblotting analysis using CP27, which recognizes all forms of tau. Recombinant and mutant Pin1 proteins were produced as N-terminal GST or His-tagged fusion proteins (Shen, M. et al., Genes Dev. 12:706-720 (1998)). PHFs were purified by immunoaffinity chromatography (Vincent, I. J. and Davies, P. Proc Natl Acad Sci USA 89:2878-2882 (1992)).
To determine whether Pin1 interacts with pT231-tau, GST-Pin1 beads were used to isolate tau from AD brain extracts or PHFs and T231 phosphorylation detected using CP9. Tau isolated by Pin1 beads was strongly immunoreactive with CP9. […] Thus, Pin1 binds pT231-tau through its WW-domain.

[7] = biological target: WFYSPFLE; assay: Fluorescence anisotropy binding to fluorescein-labeled nonphosphorylated control peptide; conditions: nonphosphorylated peptide
[8] = fluorescein labeled Pintide, high affinity pSer-binding site in the WW-domain, read-out: Kd for Pintide
[9] = high affinity binding site, read-out: WFYpSPFLE Kd(μM) High affinity
[10] = low affinity binding site, read-out: WFYpSPFLE Kd(μM) Low affinity
[11] = competition with MPM2 antigens of mitotic extracts

Pin1 and its WW-domain, sequence (Q13526 1-54 limits assumed): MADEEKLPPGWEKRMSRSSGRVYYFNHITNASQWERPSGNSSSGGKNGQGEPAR
Pin1, sequence (Q13526 whole entry): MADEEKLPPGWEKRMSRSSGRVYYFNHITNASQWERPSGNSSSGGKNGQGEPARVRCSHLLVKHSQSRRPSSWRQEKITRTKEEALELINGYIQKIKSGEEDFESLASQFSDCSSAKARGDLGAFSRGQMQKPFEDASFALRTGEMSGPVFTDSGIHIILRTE
phosphorylated tau, sequence (P10636 45-216 isoform P10636-2 limits assumed): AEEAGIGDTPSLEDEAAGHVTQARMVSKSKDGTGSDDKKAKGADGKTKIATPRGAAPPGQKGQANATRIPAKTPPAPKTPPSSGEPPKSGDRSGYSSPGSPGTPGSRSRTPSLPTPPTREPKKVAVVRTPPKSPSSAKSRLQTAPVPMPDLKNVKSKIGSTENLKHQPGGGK

Pin1^R14A: Pin1 with substitution of Arg-14 with Ala
PPlase Activity (%) [1]: 92%
Kd [2, 8]: 2 µM
Kd [2, 9]: 2 µM
Kd [2, 10]: 13.5 µM
Phosphoprotein binding activity [3]: + (binding was detected)
binding to mitotic phosphoproteins / MPM-2 antigens (in words) [3]: did not appear to cause a significant change

Pin1^S16A: Pin1 with Ser-16 substituted with Ala
PPlase Activity (%) [1]: 96%
Kd [2, 8]: 1.2 µM
Kd [2, 9]: 1.2 µM
Kd [2, 10]: 10.5 µM
Phosphoprotein binding activity [3]: + (binding was detected)
binding to mitotic phosphoproteins / MPM-2 antigens (in words) [3]: interacted with all Pin1 ligands
effect of phosphorylation by PKA on interaction with MPM2 antigens ([3]; protein phosphorylated by PKA before binding): not affected by PKA phosphorylation

KVAVVRTPPKSPS [T-231]
Binding (OD@405 nm), tau peptides [4]: 0.00 OD@405 nm

KEVDAAVTPEERHLS [pT-668] (KEVDAAV[pT]PEERHLS)
Binding (OD@405 nm), Amyloid Precursor Protein Peptide [4]: 1.81 OD@405 nm

TSPRHLSNVSSTG (also: phosphoserine, place not given here) [pS-409]
Binding (OD@405 nm), tau peptides [4]: 0.00 OD@405 nm

Pin1^S18E: Pin1 with Ser-18 mutated to Glu
PPlase Activity (%) [1]: 98%
Kd [2, 9]: 1 µM
Kd [2, 10]: 12 µM
Phosphoprotein binding activity [3]: + (binding was detected)
binding to mitotic phosphoproteins / MPM-2 antigens (in words) [3]: did not affect the ability of Pin1 to bind phosphoproteins

WFYSPRLKK (not fully specified) [C-Pintide, nonphosphorylated counterpart of Pintide, control, reference compound]
competition for phosphoprotein binding (in words) [5]: not with the nonphosphorylated peptide

NVSSTGSIDMVDS (also: phosphoserine, place not given here) [pS-416]
Binding (OD@405 nm), tau peptides [4]: 0.00 OD@405 nm

VRTPPKSPSSAKSR (also: phosphoserine, place not given here) [pS-235]
Binding (OD@405 nm), tau peptides [4]: 0.11 OD@405 nm

DAGLKESPLQTPTE (DAGLKE[pS]PLQTPTE) [pS-46]
Binding (OD@405 nm), tau peptides [4]: 0.00 OD@405 nm

WFYpSPRLKK (WFY[pS]PRLKK) [Pintide]
competition for phosphoprotein binding (in words) [5]: significantly reduced in a concentration dependent manner
peptide concentration with complete competition [5, 11]: 250 to 500 µM
peptide concentration with significant competition [5, 11]: 50 µM

Pin1^Y23F: Pin1 mutant, Tyr-23 replaced by Phe
PPlase Activity (%) [1]: 94%
Kd [2, 8]: 5 µM

KEVDAAVTPEERHLS [T-668]
Binding (OD@405 nm), Amyloid Precursor Protein Peptide [4]: 0.00 OD@405 nm

GST-Pin1: GST-fusion protein containing the entire Pin1 protein
Kd [2, 9]: 1.2 µM
Kd [2, 10]: 13 µM
binding to tau of brain extracts [6]: bound tau present in AD brain extracts or PHFs
WFYSPFLE Kd [7]: Not binding

VQSKIGSLDNITH (also: phosphoserine, place not given here) [pS-356]
Binding (OD@405 nm), tau peptides [4]: 0.00 OD@405 nm

TRIPAKTPPAPKT (also: phosphorylated Thr, place not given here) [pT-175]
Binding (OD@405 nm), tau peptides [4]: 0.00 OD@405 nm

GYSSPGSPGTPGSR (also: phosphoserine, place not given here) [pS-202]
Binding (OD@405 nm), tau peptides [4]: 0.08 OD@405 nm

SRSRTPSLPTPPT (also: phosphoserine, place not given here) [pS-214]
Binding (OD@405 nm), tau peptides [4]: 0.00 OD@405 nm

SIDMVDSPQLATL (also: phosphorylated Ser, place not given here) [pS-422]
Binding (OD@405 nm), tau peptides [4]: 0.00 OD@405 nm

PRHLSNVSSTGSIDMV [pS-413] (PRHLSNVS[pS]TGSIDMV)
Binding (OD@405 nm), tau peptides [4]: 0.00 OD@405 nm

PRHLSNVSSTGSIDMV [pS-412] (PRHLSNV[pS]STGSIDMV)
Binding (OD@405 nm), tau peptides [4]: 0.02 OD@405 nm

GSLDNITHVPGGG (GSLDNI[pT]HVPGGG) [pT-361]
Binding (OD@405 nm), tau peptides [4]: 0.00 OD@405 nm
